Target: c-fms (Homo sapiens, UniProt P07333)
Experiment: c-fms autophosphorylation, fluorescence polarization competition immunoassay
Type: biochemical
Conditions: 10 nM c-fms, 1 mM ATP, 5 mM MgCl2, 45 min room temperature; averages of three independent measurements; read-out: c-fms Autophosphorylation IC50
Experimental: Autophosphorylation, Fluorescence Polarization Competition Immunoassay
The assay buffer used was 100 mM 4-(2-hydroxyethyl)piperazine 1-ethanesulfonic acid (HEPES), pH 7.5, 1 mM 1,4-dithio-DL-threitol (DTT), 0.01% (v/v) Tween-20. Compounds were diluted in assay buffer containing 4% dimethylsulfoxide (DMSO) just prior to the assay. […] The kinase reaction was initiated by adding 2 μL of 5 mM ATP (Sigma) in assay buffer. The final concentrations in the assay were 10 nM c-fms, 1 mM ATP, 5 mM MgCl2, 2% DMSO. Control reactions were ran in each plate: in positive and negative control wells, assay buffer (made 4% in DMSO) was substituted for the compound; in addition, positive control wells received 1.2 μL of 50 mM ethylenediaminetetraaceticacid (EDTA).
The plates were incubated at room temperature for 45 min. At the end of the incubation, the reaction was quenched with 1.2 μL of 50 mM EDTA (EDTA was not added to the positive control wells at this point; see above). Following a 5-min incubation, each well received 10 μL of a 1:1:3 mixture of anti-phosphotyrosine antibody, 10×, PTK green tracer, 10× (vortexed), FP dilution buffer, respectively (all from PanVera, cat. # P2837). The plate was covered, incubated for 30 min at room temperature and the fluorescence polarization was read on the Analyst.
The IC50 values shown in Table 1 are averages of three independent measurements.

Sequence of c-fms (P07333 20-972): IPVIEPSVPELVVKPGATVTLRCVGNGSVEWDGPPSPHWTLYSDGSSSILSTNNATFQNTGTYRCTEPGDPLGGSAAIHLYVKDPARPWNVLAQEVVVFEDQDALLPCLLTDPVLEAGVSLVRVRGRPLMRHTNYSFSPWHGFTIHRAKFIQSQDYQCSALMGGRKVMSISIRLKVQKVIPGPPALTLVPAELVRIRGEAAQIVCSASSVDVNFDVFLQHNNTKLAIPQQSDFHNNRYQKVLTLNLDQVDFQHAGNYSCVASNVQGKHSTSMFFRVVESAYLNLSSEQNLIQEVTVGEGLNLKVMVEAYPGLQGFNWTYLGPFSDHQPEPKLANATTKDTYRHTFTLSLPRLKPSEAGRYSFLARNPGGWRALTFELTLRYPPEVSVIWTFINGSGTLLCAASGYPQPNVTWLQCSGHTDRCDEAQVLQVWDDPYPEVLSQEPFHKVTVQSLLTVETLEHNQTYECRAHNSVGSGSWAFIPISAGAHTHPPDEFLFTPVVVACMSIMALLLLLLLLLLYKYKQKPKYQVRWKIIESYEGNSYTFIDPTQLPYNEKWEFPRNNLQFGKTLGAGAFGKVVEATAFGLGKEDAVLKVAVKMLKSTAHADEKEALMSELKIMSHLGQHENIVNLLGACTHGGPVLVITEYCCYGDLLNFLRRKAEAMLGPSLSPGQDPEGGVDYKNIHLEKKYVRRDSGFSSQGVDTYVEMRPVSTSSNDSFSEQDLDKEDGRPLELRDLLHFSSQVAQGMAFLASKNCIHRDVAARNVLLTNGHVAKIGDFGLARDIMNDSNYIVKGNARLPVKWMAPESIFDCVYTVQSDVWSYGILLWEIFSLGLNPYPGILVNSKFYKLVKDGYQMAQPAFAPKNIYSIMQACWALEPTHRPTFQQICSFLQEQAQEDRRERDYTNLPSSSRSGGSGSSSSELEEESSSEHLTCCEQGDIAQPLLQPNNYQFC

SMILES	IC50 [nM]
CN(C)CC(=O)N1CCC(c2ccc(Nc3ncc4c(=O)c(C(N)=O)cn(C5CCCCC5)c4n3)cc2)CC1 [Cpd 68, 8-Cyclohexyl-2-{4-[1-(2-dimethylamino-acetyl)-piperidin-4-yl]-phenylamino}-5-oxo-5,8-dihydro-pyrido[2,3-d]pyrimidine-6-carboxylic acid amide]	130
NC(=O)c1cn(C2CCCCC2)c2nc(Nc3ccc(CCN4CCOCC4)cc3)ncc2c1=O [Cpd 57, 8-Cyclohexyl-2-[4-(2-morpholin-4-yl-ethyl)-phenylamino]-5-oxo-5,8-dihydro-pyrido[2,3-d]pyrimidine-6-carboxylic acid amide]	26
CCOC(=O)c1cn(C2CCCCC2)c2nc(Nc3ccc(N4CCN(C)CC4)cc3)ncc2c1=O [Cpd 17, 8-Cyclohexyl-2-[4-(4-methyl-piperazin-1-yl)-phenylamino]-5-oxo-5,8-dihydro-pyrido[2,3-d]pyrimidine-6-carboxylic acid ethyl ester]	1700
CCOC(=O)c1cn(-c2ccc3c(c2)CCC3)c2nc(Nc3cccc(N(C)C)c3)ncc2c1=O [Cpd 5, 2-(3-Dimethylamino-phenylamino)-8-indan-5-yl-5-oxo-5,8-dihydro-pyrido[2,3-d]pyrimidine-6-carboxylic acid ethyl ester]	590
CCOC(=O)c1cn(-c2ccc3c(c2)CCC3)c2nc(Nc3ccc(N4CCOCC4)cc3)ncc2c1=O [Cpd 3, 8-Indan-5-yl-2-(4-morpholin-4-yl-phenylamino)-5-oxo-5,8-dihydro-pyrido[2,3-d]pyrimidine-6-carboxylic acid ethyl ester]	2900
CCNC(=O)c1cn(C2CCCCC2)c2nc(Nc3ccc(CCN4CCOCC4)cc3)ncc2c1=O [Cpd 59, 8-Cyclohexyl-2-[4-(2-morpholin-4-yl-ethyl)-phenylamino]-5-oxo-5,8-dihydro-pyrido[2,3-d]pyrimidine-6-carboxylic acid ethyl amide]	190
CCNC(=O)c1cn(-c2ccc3c(c2)CCC3)c2nc(Nc3ccc(N4CCN(C)CC4)cc3)ncc2c1=O [Cpd 9, 8-indan-5-yl-2-[4-(4-methyl-piperazin-1-yl)-phenylamino]-5-oxo-5,8-dihydro-pyrido[2,3-d]pyrimidine-6-carboxylic acid ethylamide]	68
CN1CCN(c2ccc(Nc3ncc4c(=O)c(C(N)=O)cn(C5CC6CCC5C6)c4n3)cc2)CC1 (stereo not shown) [Cpd 82, 8-Bicyclo[2.2.1]hept-2-yl-2-[4-(4-methyl-piperazin-1-yl)-phenylamino]-5-oxo-5,8-dihydro-pyrido[2,3-d]pyrimidine-6-carboxylic acid amide]	81
CN1CCN(c2cccc(Nc3ncc4c(=O)c(C(N)=O)cn(C5CCCCC5)c4n3)c2)CC1 [Cpd 63, 8-Cyclohexyl-2-[3-(4-methyl-piperazin-1-yl)-phenylamino]-5-oxo-5,8-dihydro-pyrido[2,3-d]pyrimidine-6-carboxylic acid amide]	21
CCNC(=O)c1cn(C2CCCCC2)c2nc(Nc3ccc(N4CCN(C)CC4)cc3)ncc2c1=O [Cpd 62, 8-Cyclohexyl-2-[4-(4-methyl-piperazin-1-yl)-phenylamino]-5-oxo-5,8-dihydro-pyrido[2,3-d]pyrimidine-6-carboxylic acid ethyl amide]	190
CCNC(=O)c1cn(-c2ccc3c(c2)CCC3)c2nc(Nc3ccc(N4CCNCC4)cc3)ncc2c1=O [Cpd 42, 8-indan-5-yl-5-oxo-2-(4-piperazin-1-yl-phenylamino)-5,8-dihydro-pyrido[2,3-d]pyrimidine-6-carboxylic acid ethyl amide]	16
CNC(=O)c1cn(-c2ccc3c(c2)CCC3)c2nc(Nc3ccc(C[C@H]4COC(=O)N4)cc3)ncc2c1=O [Cpd 31, (4S)-8-Indan-5-yl-5-oxo-2-[4-(2-oxo-oxazolidin-4-ylmethyl)-phenylamino]-5,8-dihydro-pyrido[2,3-d]pyrimidine-6-carboxylic acid methyl amide]	20
CNC(=O)c1cn(-c2ccc3c(c2)CCC3)c2nc(Nc3ccc(N4CCN(C)CC4)cc3)ncc2c1=O [Cpd 8, 8-indan-5-yl-2-[4-(4-methyl-piperazin-1-yl)-phenylamino]-5-oxo-5,8-dihydro-pyrido[2,3-d]pyrimidine-6-carboxylic acid methylamide]	31
CCNC(=O)c1cn(-c2ccc3c(c2)CCC3)c2nc(Nc3ccc(CN4CCN(C)CC4)cc3)ncc2c1=O [Cpd 84, 8-Indan-5-yl-2-[4-(4-methyl-piperazin-1-ylmethyl)-phenylamino]-5-oxo-5,8-dihydro-pyrido[2,3-d]pyrimidine-6-carboxylic acid ethylamide]	32
CCNC(=O)c1cn(-c2ccc3c(c2)CCC3)c2nc(Nc3ccc(C4CCNCC4)cc3)ncc2c1=O [Cpd 51, 8-Indan-5-yl-5-oxo-2-(4-piperidin-4-yl-phenylamino)-5,8-dihydro-pyrido[2,3-d]pyrimidine-6-carboxylic acid ethyl amide]	25
CN(C)CC(=O)N1CCC(c2ccc(Nc3ncc4c(=O)c(C(N)=O)cn(-c5ccc6c(c5)CCC6)c4n3)cc2)CC1 [Cpd 70, 2-{4-[1-(2-Dimethylamino-acetyl)-piperidin-4-yl]-phenylamino}-8-indan-5-yl-5-oxo-5,8-dihydro-pyrido[2,3-d]pyrimidine-6-carboxylic acid amide]	1100
CNC(=O)c1cn(-c2ccc3c(c2)CCC3)c2nc(Nc3cccc(CN(C)C)c3)ncc2c1=O [Cpd 77, 2-(3-Dimethylaminomethyl-phenylamino)-8-indan-5-yl-5-oxo-5,8-dihydro-pyrido[2,3-d]pyrimidine-6-carboxylic acid methylamide]	150
CCNC(=O)c1cn(-c2ccc3c(c2)CCC3)c2nc(Nc3ccc(N4CC(C)NC(C)C4)cc3)ncc2c1=O (stereo not shown) [Cpd 45, 2-[4-(3,5-Dimethyl-piperazin-1-yl)-phenylamino]-8-indan-5-yl-5-oxo-5,8-dihydro-pyrido[2,3-d]pyrimidine-6-carboxylic acid ethyl amide]	12
NC(=O)c1cn(-c2ccc3c(c2)CCC3)c2nc(Nc3cccc(CN4CCOCC4)c3)ncc2c1=O [Cpd 24, 8-Indan-5-yl-2-(3-morpholin-4-ylmethyl-phenylamino)-5-oxo-5,8-dihydro-pyrido[2,3-d]pyrimidine-6-carboxylic acid amide]	18
CNC(=O)c1cn(C2CCCCC2)c2nc(Nc3ccc(N4CCN(C)CC4)cc3)ncc2c1=O [Cpd 61, 8-Cyclohexyl-2-[4-(4-methyl-piperazin-1-yl)-phenylamino]-5-oxo-5,8-dihydro-pyrido[2,3-d]pyrimidine-6-carboxylic acid methyl amide]	160
CN1CCN(c2ccc(Nc3cc4c(cn3)c(=O)c(C(N)=O)cn4-c3ccc4c(c3)CCC4)cc2)CC1 [Cpd 26, 1-Indan-5-yl-7-[4-(4-methyl-piperazin-1-yl)-phenylamino]-4-oxo-1,4-dihydro-[1,6]naphthyridine-3-carboxylic acid amide]	56
CN(C)Cc1cccc(Nc2ncc3c(=O)c(C(N)=O)cn(-c4ccc5c(c4)CCC5)c3n2)c1 [Cpd 76, 2-(3-Dimethylaminomethyl-phenylamino)-8-indan-5-yl-5-oxo-5,8-dihydro-pyrido[2,3-d]pyrimidine-6-carboxylic acid amide]	18
CNC(=O)c1cn(Cc2ccccc2)c2nc(Nc3ccc(N4CCN(C)CC4)cc3)ncc2c1=O [Cpd 85, 8-Benzyl-2-[4-(4-methyl-piperazin-1-yl)-phenylamino]-5-oxo-5,8-dihydro-pyrido[2,3-d]pyrimidine-6-carboxylic acid methylamide]	420
NC(=O)c1cn(-c2ccc3c(c2)CCC3)c2nc(Nc3ccc(CCN4CCOCC4)cc3)ncc2c1=O [Cpd 27, 8-Indan-5-yl-2-[4-(2-morpholin-4-yl-ethyl)-phenylamino]-5-oxo-5,8-dihydro-pyrido[2,3-d]pyrimidine-6-carboxylic acid amide]	10
NC(=O)c1cn(C2CCCCC2)c2nc(Nc3ccc(CCS(=O)(=O)N4CCOCC4)cc3)ncc2c1=O [Cpd 67, 8-Cyclohexyl-2-{4-[2-(morpholine-4-sulfonyl)-ethyl]-phenylamino}-5-oxo-5,8-dihydro-pyrido[2,3-d]pyrimidine-6-carboxylic acid amide]	120
CN1CCN(c2ccc(Nc3ncc4c(=O)c(C(N)=O)cn(C5CCCCC5)c4n3)cc2)CC1 [Cpd 60, 8-Cyclohexyl-2-[4-(4-methyl-piperazin-1-yl)-phenylamino]-5-oxo-5,8-dihydro-pyrido[2,3-d]pyrimidine-6-carboxylic acid amide]	35
CCNC(=O)c1cn(-c2ccc3c(c2)CCC3)c2nc(Nc3ccc(C[C@H]4COC(=O)N4)cc3)ncc2c1=O [Cpd 32, (4S)-8-Indan-5-yl-5-oxo-2-[4-(2-oxo-oxazolidin-4-ylmethyl)-phenylamino]-5,8-dihydro-pyrido[2,3-d]pyrimidine-6-carboxylic acid ethyl amide]	33
CN1CCN(CC(=O)N2CCC(c3cccc(Nc4ncc5c(=O)c(C(N)=O)cn(-c6ccc7c(c6)CCC7)c5n4)c3)CC2)CC1 [Cpd 73, 8-Indan-5-yl-2-(3-{1-[2-(4-methyl-piperazin-1-yl)-acetyl]-piperidin-4-yl}-phenylamino)-5-oxo-5,8-dihydro-pyrido[2,3-d]pyrimidine-6-carboxylic acid amide]	> 1000
